What was measured:
[1] = Storage stability of the amorphous salt by x-ray powder diffraction; type: physicochemical; settings: storage at room temperature in a sealed vessel; XRD curves after production and after storage essentially the same (FIG. 5)
Text: The reason for this is that the general experience with amorphous active substances is that they are less chemically stable, also while amorphous substances are left to stand, optionally, during storage, or in the pharmaceutical preparation itself they partially or completely transform into a crystalline form or into a mixture of several crystalline forms forming a morphologically inhomogeneous (non-uniform) active substance. Furthermore the solubility of the unstable amorphous compound usually differs from the solubility of the crystalline active substance, a morphological change during storage may lead to a change in the effect of the preparation. However, contrary to the general expectations it was surprising to experience that the formula (III) amorphous lumateperone salt according to the invention, in which salt the molar ratio of the formula (I) lumateperone and p-toluenesulfonic acid is 1:1, remains stable for 3 months (see FIG. 5) without transforming into the very stable polymorph form A or other form. […] It can be seen that the two curves are essentially the same, no peaks characteristic of crystalline forms are apparent even after storage. […] [table] [table]

[2] = DSC measurement of the amorphous tosylate; type: physicochemical; settings: 30° C. - 190° C., 10° C./min, open Al crucible
Experimental: According to DSC measurements the amorphous form formed with p-toluenesulfonic acid according to the invention only transforms into the crystalline form A at a temperature of around 120° C. This supports that the amorphous form is suitable for the production of pharmaceutical preparations. In other words the advantage of the invention is that the amorphous salt according to the invention is morphologically uniform and stable. Therefore, it is not expected to transform into another form in the pharmaceutical preparation, and the quality of the preparations, primarily its dissolution characteristics are not expected to change. The morphological uniformity is supported by the x-ray powder diffractogram of the novel salt, it confirms its uniform crystal structure and enables the identification of the form even in a pharmaceutical preparation, thereby making it possible to monitor the quality at a later time, and differentiate it from other crystalline polymorphous forms. [table]

In the case of `CN1CCN2c3c(cccc31)[C@@H]1CN(CCCC(=O)c3ccc(F)cc3)CC[C@@H]12.Cc1ccc(S(=O)(=O)O)cc1`, the “remains stable without transforming into the very stable polymorph form A or other form” value [1] is reported as 3 months and the “temperature at which the amorphous form transforms into the crystalline form A” value [2] is reported as “around 120 °C”.
